Data reported in the SangsterLogP compilation.

Assay: method code SF-AS, from DOI: 10.1021/jm00114a020, PMID: 1920359
Conditions: pH 7.4

## NS(=O)(=O)c1ccc(S(=O)(=O)CCCO)cc1
  logD: -0.64

## NS(=O)(=O)c1ccc(SCCCCCO)cc1
  logD: 1.04

## CC(=O)OCCCc1ccc(S(N)(=O)=O)cc1
  logD: 0.98

## CC(=O)OCCS(=O)(=O)c1ccc(S(N)(=O)=O)s1
  logD: 0.11

## Nc1cc(S(N)(=O)=O)ccc1S(=O)(=O)CCCO
  logD: -0.48

## CC(=O)OCCCCCc1ccc(S(N)(=O)=O)cc1
  logD: 1.86

## NS(=O)(=O)c1ccc(SCCO)c(F)c1
  logD: 0.72

## NS(=O)(=O)c1ccc(S(=O)(=O)CCCO)c(F)c1
  logD: -0.41

## NS(=O)(=O)c1ccc(SCCCO)c(F)c1
  logD: 0.99

## COC(=O)c1cc(S(N)(=O)=O)ccc1S(=O)(=O)CCCO
  logD: -0.3

## NS(=O)(=O)c1ccc(S(=O)(=O)CCCCO)cc1
  logD: -0.26

## CC(C)(O)CCS(=O)(=O)c1ccc(S(N)(=O)=O)cc1
  logD: -0.09

## NS(=O)(=O)c1ccc(SCCCO)s1
  logD: 0.85

## CC(=O)OCCCS(=O)(=O)c1ccc(S(N)(=O)=O)s1
  logD: 0.17

## NS(=O)(=O)c1ccc(S(=O)(=O)CCO)c(F)c1
  logD: -0.6

## NS(=O)(=O)c1ccc(S(=O)(=O)CCCO)c([N+](=O)[O-])c1
  logD: -0.05

## COCC(=O)OCCCS(=O)(=O)c1ccc(S(N)(=O)=O)s1
  logD: -0.14

## NS(=O)(=O)c1ccc(S(=O)(=O)CCO)cc1
  logD: -0.85

## NS(=O)(=O)c1ccc(SCCCO)c([N+](=O)[O-])c1
  logD: 0.96

## NS(=O)(=O)c1ccc(CCCO)cc1
  logD: 0.17

## NS(=O)(=O)c1ccc(SCCCCO)cc1
  logD: 0.93

## NS(=O)(=O)c1ccc(S(=O)(=O)CCCO)s1
  logD: -0.36

## NS(=O)(=O)c1ccc(CCCCCO)cc1
  logD: 1.04

## NS(=O)(=O)c1ccc(S(=O)(=O)CCO)s1
  logD: -0.54

## NS(=O)(=O)c1ccc(SCCCO)cc1
  logD: 0.8

## CC(C)(O)CCSc1ccc(S(N)(=O)=O)cc1
  logD: 1.4

## Nc1cc(S(N)(=O)=O)ccc1S(=O)(=O)CCO
  logD: -0.6

## NS(=O)(=O)c1ccc(SCCCCO)s1
  logD: 0.95

## NS(=O)(=O)c1ccc(SCCCCO)c(F)c1
  logD: 1.28

## NS(=O)(=O)c1ccc(CCCCO)cc1
  logD: 0.57

## NS(=O)(=O)c1ccc(S(=O)(=O)CCCCO)s1
  logD: -0.34

## NS(=O)(=O)c1ccc(SCCO)c([N+](=O)[O-])c1
  logD: 0.38

## NS(=O)(=O)c1ccc(SCCCO)c(Cl)c1
  logD: 1.59

## NS(=O)(=O)c1ccc(SCCO)s1
  logD: 0.38

## NS(=O)(=O)c1ccc(SCCO)cc1
  logD: 0.36

## COC(=O)c1cc(S(N)(=O)=O)ccc1S(=O)(=O)CCO
  logD: -0.47
